In general, IC50 refers to the concentration needed to halve the response being measured.

Each structure is given as a SMILES string.

Holding throughout (format): cell-based, human
Test [1] deals with A549 cells (KRAS G12S mutant). The experiment in a line: Cell proliferation inhibition experiment, 3D spheroid, CellTiter-Glo, A549. The settings on record: Homo sapiens, A549, 120 h, A549 (KRAS G12S mutant) 3D spheroid, 5 days with compound, CellTiter-Glo; read-out: A549 IC50. The method in brief:
(§1)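 First, H358 (800/well) or A549 (400/well) cells are plated in 2% FBS medium and left overnight to form spheroids. Next, compound is added as a 3.16-fold gradient at 0.1% DMSO for 5 days. Finally, CellTiter-Glo signal is read and IC50 derived by four-parameter fitting.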

Test [2] has as its system KRAS G12C mutant MIA PaCa-2 cells. The experiment in a line: Cell proliferation inhibition experiment, 3D spheroid, CellTiter-Glo, MIA PaCa-2. The settings on record: Homo sapiens, MIA PaCa-2, 120 h, 3D cell model in 384-well spheroid plate, 5 days, CellTiter-Glo; read-out: MIA-PaCa2 IC50. In outline:
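Luminescent ATP read-out (CellTiter-Glo) after 5-day compound treatment of spheroids formed overnight from 200 MIA PaCa-2 cells/well; compounds in 3.16-fold series, 0.1% DMSO final. IC50 derived by four-parameter fit of percent inhibition, normalized to DMSO control and medium blank.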
(ATP-based viability assays read luminescence as a measure of living cells.)

In test [3] the test system is KRAS G12C mutant NCI-H358 cells. The experiment in a line: Cell proliferation inhibition experiment, 3D spheroid, CellTiter-Glo, NCI-H358. The settings on record: Homo sapiens, NCI-H358, 120 h, NCI-H358 (KRAS G12C mutant) 3D spheroid, 5 days with compound, CellTiter-Glo; read-out: H358 IC50. The method in brief: as §1

As to `C=CC(=O)N1CCN2C(=O)c3c(NC45CC(C4)C5)nc(-c4c(O)cccc4F)c(Cl)c3OC[C@H]2C1` [Z41, (6aR)-8-acryloyl-1-(bicyclo [1.1.1]pentan-1-ylamino)-4-chloro-3-(2-fluoro-6-hydroxyphenyl)-6,6a,7,8,9,10-hexahydro-12H-pyrazino[2,1-c]pyrido[3,4-f][1,4]oxazepin-12-one], the half-maximal inhibitory concentration (IC50) in test [1] came to 1220 nM; in test [2], 73 nM; in test [3], 22 nM.
Turning to `C=CC(=O)N1CCN2C(=O)c3c(OC4CCCN(C)C4)nc(-c4c(O)cccc4F)c(Cl)c3OC[C@H]2C1` (stereo partly drawn) [Z43, (6aR)-8-acryloyl-4-chloro-3-(2-fluoro-6-hydroxyphenyl)-1-((1-methylpiperidin-3-yl)oxy)-6,6a,7,8,9,10-hexahydro-12H-pyrazino[2,1-c]pyrido[3,4-f][1,4]oxazepin-12-one], the IC50 in test [1] is over 30000 nM; in test [2] it was 34 nM; in test [3], 39 nM.
The corresponding values for `C=CC(=O)N1CCN2C(=O)c3c(N4CCC[C@H]4C)nc(-c4c(O)cccc4F)c(Cl)c3OC[C@H]2C1` [Z48, (6aR)-8-acryloyl-1-((R)-2-methylpyrrolidin-1-yl)-4-chloro-3-(2-fluoro-6-hydroxyphenyl)-6,6a,7,8,9,10-hexahydro-12H-pyrazino[2,1-c]pyrido[3,4-f][1,4]oxazepin-12-one] are over 5000 nM, 28 nM and 15 nM.
For the compound `C=CC(=O)N1CCN2C(=O)c3c(N4CCC[C@@H]4C)nc(-c4c(O)cccc4F)c(Cl)c3OC[C@H]2C1` [Z49, (6aR)-8-acryloyl-1-((S)-2-methylpyrrolidin-1-yl)-4-chloro-3-(2-fluoro-6-hydroxyphenyl)-6,6a,7,8,9,10-hexahydro-12H-pyrazino[2,1-c]pyrido[3,4-f][1,4]oxazepin-12-one], the figures for the half-maximal inhibitory concentration (IC50) in test [1], in test [2] and in test [3] were over 5000 nM, 7 nM and 4 nM, respectively.
The corresponding values for `C=CC(=O)N1CCN2C(=O)c3c(N4CC(O)CC4(C)C)nc(-c4c(O)cccc4F)c(Cl)c3OC[C@H]2C1` (stereo partly drawn) [Z50, (6aR)-8-amyloyl-4-chloro-3-(2-fluoro-6-hydroxyphenyl)-1-(4-hydroxy-2,2-dimethylpyrrolidin-1-yl)-6,6a,7,8,9,10-hexahydro-12H-pyrazino[2,1-c]pyrido[3,4-f][1,4]oxazepin-12-one] are over 5000 nM, 2 nM and 2 nM.
The corresponding values for `C=CC(=O)N1CCN2C(=O)c3c(N4CCN(C)C[C@@H]4C)nc(-c4c(O)cccc4F)c(Cl)c3OC[C@H]2C1` [Z51, (6aR)-8-acryloyl-4-chloro-1-((S)-2,4-dimethylpiperazin-1-yl)-3-(2-fluoro-6-hydroxyphenyl)-6,6a,7,8,9,10-hexahydro-12H-pyrazino[2,1-c]pyrido[3,4-f][1,4]oxazepin-12-one] are over 5000 nM, 7 nM and 4 nM.
The corresponding values for `C=CC(=O)N1CCN2C(=O)c3c(N4CCCC45CC5)nc(-c4c(O)cccc4F)c(Cl)c3OC[C@H]2C1` [Z56, (6aR)-8-acryloyl-4-chloro-3-(2-fluoro-6-hydroxyphenyl)-1-(4-azaspiro[2.4]heptan-4-yl)-6,6a,7,8,9,10-hexahydro-12H-pyrazino[2,1-c]pyrido[3,4-f][1,4]oxazepin-12-one] are over 7000 nM, 71 nM and 17 nM.
For `C=CC(=O)N1CCN2C(=O)c3c(N4CCN(C)C[C@@H]4C)nc(-c4ccccc4F)c(Cl)c3OC[C@H]2C1` [Z407-1, (R)-8-acryloyl-4-chloro-1-((S)-2,4-dimethylpiperazin-1-yl)-3-(2-fluorophenyl)-6,6a,7,8,9,10-hexahydro-12H-pyrazino[2,1-c]pyrido[3,4-f][1,4]oxazepin-12-one], the half-inhibitory concentration (IC50) in test [1] amounted to 9160 nM; in test [2] it was 39 nM; in test [3], 18.8 nM.
